We go through 4 molecules from article PMC4906375, “Contribution of Amphipathicity and Hydrophobicity to the Antimicrobial Activity and Cytotoxicity of β-Hairpin Peptides” (ACS Infectious Diseases, 2016).

In brackets after ≈: the same amount, converted by molar mass. Residues, ends and D or L forms follow the SMILES beside them.

For one data set, the system named is A. baumannii ATCC 19606. The class given is cell-based, Acinetobacter baumannii. Particulars: ATCC 19606. On the procedure: (§1) Both antibacterial and antifungal MIC assays were performed by a broth microdilution plate based method as per CLSI guidelines for antimicrobial susceptibility testing.[53],[54] […] Full assay details are included in the Supporting Information with a full list of strains tested in Table S1.
(§2) Antibacterial assay (Minimum Inhibitory Concentration [MIC]).
(§3) MIC assay was performed by a broth microdilution plate based method as per CLSI guidelines for antimicrobial susceptibility testing of aerobic bacteria.1 Compounds were prepared at 1.28 mg/mL solution in water. The tested strains, Table S1, were cultured in Luria broth (LB) (In Vitro Technologies, USB75852), at 37 °C overnight. A sample of culture was then diluted 40Pfold in fresh Muller Hinton broth (MHB) (Bacto laboratories, 211443) and incubated at 37 °C for 1.5P2 h. The compounds were serially diluted twoPfold across the wells, with compound concentrations ranging from 0.015 µg/mL to 512 µg/mL, plated in duplicate. The resultant midPlog phase cultures were diluted to the final concentration of 1×10^6 CFU/mL, then 50 µL was added to each well of the compoundP containing 96Pwell plates (Corning 3641, NonPbinding Surface [NBS]), giving a final compound concentration range of 0.008 µg/mL to 256 µg/mL and 5x10^5 CFU/mL. All the plates were covered and incubated at 37 °C for 18 h. MICs were determined visually, being defined as the lowest concentration showing no visible growth. Resazurin was added at 0.001% final concentration to each well and incubated for 2 h before MICs were rePread for confirmation using the colour change from blue to pink to indicate wells containing viable cells. The resazurin assay was added in some wells where some form of precipitate was present in otherwise clear wells, making it difficult to ascertain which wells had visible […]
(§4) Antifungal assay (Minimum Inhibitory Concentration [MIC]). MIC assay was performed by a broth microdilution plate based method as per CLSI guidelines for antimicrobial susceptibility testing.2 Fungi strains, Table S1, were cultured for 3 days on Yeast ExtractPPeptone Dextrose (YPD) (SigmaPAldrich, Y1500) agar at 30 °C. A yeast suspension of 1x10^6 to 5x10^6 CFU/mL was prepared from five colonies. These stock suspensions were diluted with Yeast Nitrogen Base (YNB) (Becton Dickinson, 233520) broth to a final concentration of 2.5 ×10^3 CFU/mL. All samples, compounds and standards were plated in 96Pwell plates (Corning 3641, NonPbinding Surface [NBS]), by adding 10 µL of 1.28 mg/mL stock solution to each well and 90 µL of media. Then, the samples were serial diluted (1:2) in 12 concentrations across the plate. The standard antifungal ranged from 256

A further data set has as its system B. subtilis ATCC 6051. Put plainly: microbe, parasite or virus in culture. In kind it is cell-based, Bacillus subtilis. As to conditions: ATCC 6051. On the procedure: as §1, §2, §3, §4
Data set [1] concerns S. aureus ATCC 43300 (MRSA). Put plainly: microbe, parasite or virus in culture. In kind it is cell-based, Staphylococcus aureus. Particulars: S. aureus ATCC 43300 (MRSA); n = 4. On the procedure:
as §1, §2, §3, §4

In data set [2] the test system is K. pneumoniae BAA 2146 (NDM-1 pos). In kind it is cell-based, Klebsiella pneumoniae. Particulars: n = 4. Here is the method:
as §1, §2, §3, §4

Another data set deals with K. pneumoniae ATCC 13883. In kind it is cell-based, Klebsiella pneumoniae. As to conditions: ATCC 13883. Here is the method: as §1, §2, §3, §4
Data set [3] concerns K. pneumoniae ATCC 700603 (MDR). In kind it is cell-based, Klebsiella pneumoniae. Particulars: n = 4. Here is the method: as §1, §2, §3, §4
Another data set relates to C. albicans ATCC 90028. Description: microbe, parasite or virus in culture. In kind it is cell-based, Candida albicans. Here is the method:
as §1, §2, §3
as §4, with “256 […]” for “256”
µg/mL to 0.12 µg/mL and compounds from 128 µg/mL to 0.06 µg/mL with final volumes of 50 µL per well, plated in duplicate. Then, 50 µL of the fungi suspension that was previously prepared in YNB broth to the final concentration of 2.5×10^3 CFU/mL, was added to each well of the compoundPcontaining plates, giving a final standard compound concentration range of 128 µg/mL to 0.06 µg/mL and tested compound from 64 µg/mL to 0.03 µg/mL. Plates were covered and incubated at 35 °C for 24 h. Candida albicans MICs were determined by measuring the absorbance at OD530. For Cryptococcus neoformans 10 µL of 0.06 % resazurin were added to the 24 h incubated plates. Then, these plates were incubated for another 3 h.
Cryptococcus neoformans MICs were determined by measuring the absorbance at OD570P600. […]

The conditions of data set [4]: hemolysis (%) at 300 μg/mL, human erythrocytes, 3 h, relative to 100% hemolysis by 1% Triton X-100.

With `CC(C)[C@@H]1NC(=O)CNC(=O)[C@H](CC(N)=O)NC(=O)[C@H](CCCNC(=N)N)NC(=O)[C@H](Cc2ccc(O)cc2)NC(=O)[C@H](C(C)C)NC(=O)[C@@H]2CSSC[C@H](NC(=O)[C@H](C(C)C)NC(=O)[C@H](CCCNC(=N)N)NC1=O)C(=O)N[C@@H](Cc1ccc(O)cc1)C(=O)N[C@@H](CCCNC(=N)N)C(=O)N[C@@H](CCCNC(=N)N)C(=O)N[C@H](C(=O)N[C@@H](CC(N)=O)C(=O)O)CSSC[C@H](NC(=O)[C@H](Cc1ccccc1)NC(=O)CN)C(=O)N[C@@H](Cc1c[nH]c3ccccc13)C(=O)N[C@@H](Cc1ccc(O)cc1)C(=O)N[C@@H](C(C)C)C(=O)N2` [arenicin-3] (HELM PEPTIDE1{G.F.C.W.Y.V.C.V.Y.R.N.G.V.R.V.C.Y.R.R.C.N}$PEPTIDE1,PEPTIDE1,3:R3-20:R3|PEPTIDE1,PEPTIDE1,7:R3-16:R3$$$V2.0), the MIC in the data set with A. baumannii ATCC 19606 was 0.5 µg/mL (≈ 0.191 µM); in the data set on B. subtilis ATCC 6051, 8 µg/mL (≈ 3.06 µM); in data set [1] it was 64 µg/mL (≈ 24.5 µM); in data set [2], 4 µg/mL (≈ 1.53 µM); with K. pneumoniae ATCC 13883, 1 µg/mL (≈ 0.383 µM); in data set [3] it was 4 µg/mL (≈ 1.53 µM). In addition, the MIC in the data set with C. albicans ATCC 90028 (ATCC 90028) came to 64 µg/mL (≈ 24.5 µM). The molecule further yielded a hemolysis in data set [4] of 4%.
In the case of `CC(C)[C@@H]1NC(=O)[C@H](CCCNC(=N)N)NC(=O)[C@H](Cc2ccccc2)NC(=O)[C@@H](NC(=O)[C@H](Cc2c[nH]c3ccccc23)NC(=O)[C@H](CCCNC(=N)N)NC(=O)[C@@H](N)CCCNC(=N)N)CSSC[C@@H](C(=O)N[C@@H](CCCNC(=N)N)C(N)=O)NC(=O)[C@H](CCCCN)NC(=O)[C@H](CCCNC(=N)N)NC(=O)[C@H](Cc2ccc(O)cc2)NC(=O)[C@@H]2CSSC[C@H](NC1=O)C(=O)N[C@@H](Cc1ccc(O)cc1)C(=O)N[C@@H](CCCNC(=N)N)C(=O)NCC(=O)N[C@@H](Cc1ccccc1)C(=O)N2` [polyphemusin-1] (HELM PEPTIDE1{R.R.W.C.F.R.V.C.Y.R.G.F.C.Y.R.K.C.R.[am]}$PEPTIDE1,PEPTIDE1,4:R3-17:R3|PEPTIDE1,PEPTIDE1,8:R3-13:R3$$$V2.0), the MIC in the data set with A. baumannii ATCC 19606 was 0.06 µg/mL (≈ 0.0244 µM); in the data set on B. subtilis ATCC 6051 it was 0.25 µg/mL (≈ 0.102 µM); in data set [1], 2 µg/mL (≈ 0.815 µM); in data set [2] it was 2 µg/mL (≈ 0.815 µM); in the data set on K. pneumoniae ATCC 13883, 0.5 µg/mL (≈ 0.204 µM); in data set [3] it was 1 µg/mL (≈ 0.407 µM). Moreover, in the data set on C. albicans ATCC 90028 (ATCC 90028), the MIC worked out at 1 µg/mL (≈ 0.407 µM). Besides, in data set [4], the hemolysis was around 30%.
As for `[H][C@]12CSSC[C@]([H])(NC(=O)[C@]([H])([C@@H](C)CC)NC(=O)CNC(=O)[C@H](CCCNC(=N)N)NC(=O)[C@H](Cc3ccc(O)cc3)NC1=O)C(=O)N[C@@H](Cc1ccc(O)cc1)C(=O)N[C@@H](CCCNC(=N)N)C(=O)N[C@@H](CCCNC(=N)N)C(=O)N[C@H](C(=O)N[C@@H](CCCNC(=N)N)C(N)=O)CSSC[C@H](NC(=O)[C@H](Cc1c[nH]c3ccccc13)NC(=O)[C@@H](N)CCCCN)C(=O)N[C@@H](Cc1ccccc1)C(=O)N[C@@H](CCCNC(=N)N)C(=O)N[C@@H](C(C)C)C(=O)N2` [tachyplesin-1] (HELM PEPTIDE1{K.W.C.F.R.V.C.Y.R.G.I.C.Y.R.R.C.R.[am]}$PEPTIDE1,PEPTIDE1,3:R3-16:R3|PEPTIDE1,PEPTIDE1,7:R3-12:R3$$$V2.0), the MIC came out at 0.125 µg/mL (≈ 0.0552 µM) against A. baumannii ATCC 19606; 0.125 µg/mL (≈ 0.0552 µM) against B. subtilis ATCC 6051; 1 µg/mL (≈ 0.442 µM) in data set [1]; 0.25 µg/mL (≈ 0.11 µM) in data set [2]; 0.125 µg/mL (≈ 0.0552 µM) against K. pneumoniae ATCC 13883; 0.25 µg/mL (≈ 0.11 µM) in data set [3]. This molecule also registered an MIC against C. albicans ATCC 90028 (ATCC 90028) of 4 µg/mL (≈ 1.77 µM). For the same molecule, the hemolysis in data set [4] is around 30%.
In the case of `CC[C@H](C)[C@H](NC(=O)[C@@H](NC(=O)[C@@H]1CCCN1C(=O)[C@@H](NC(=O)[C@@H]1CCCN1C(=O)[C@H](CCCCN)NC(=O)[C@H](CCCCN)NC(=O)[C@H](CO)NC(=O)CN)C(C)C)[C@@H](C)CC)C(=O)N[C@@H](Cc1ccc(O)cc1)C(=O)N[C@H]1CSSC[C@@H](C(=O)N[C@@H](CCC(N)=O)C(=O)N[C@@H](CCCNC(=N)N)C(=O)N[C@@H](CCSC)C(N)=O)NC(=O)[C@H](CCCCN)NC(=O)CNC(=O)[C@H]([C@@H](C)O)NC(=O)[C@H](CCCNC(=N)N)NC(=O)[C@H](CCCNC(=N)N)NC(=O)[C@H](CC(N)=O)NC1=O` [thanatin], the MIC is above 256 µg/mL against A. baumannii ATCC 19606; 128 µg/mL (≈ 52.6 µM) in the data set with B. subtilis ATCC 6051; 256 µg/mL (≈ 105 µM) in data set [1]; 256 µg/mL (≈ 105 µM) in data set [2]; 8 µg/mL (≈ 3.29 µM) against K. pneumoniae ATCC 13883; 64 µg/mL (≈ 26.3 µM) in data set [3]. In the data set on C. albicans ATCC 90028 (C. albicans ATCC 90028, n = 4), this molecule returned an MIC of 64 µg/mL (≈ 26.3 µM). Besides, in data set [4], the hemolysis came out at 1.3 ± 0.4%.
